Data taken from patent US20150335602A1, “IMPROVEMENT OF COGNITIVE FUNCTION IN PRETERM INFANTS THAT ARE SMALL FOR GESTATIONAL AGE” (N.V. NUTRICIA, priority 2013, published 2015).

How the values were obtained:
Type in all cases: in vivo, human
[1] = Brain cortical volumes by MRI at school age after enteral glutamine supplementation in the first month of life; conditions: glutamine supplemented group versus control preterm group
Description: (§1) A randomized, placebo controlled clinical trial was performed. For a detailed protocol of the study, see van den Berg et al, 2004, Glutamine-enriched enteral nutrition in very low birth weight infants. Design of a double-blind randomised controlled trial [ISRCTN73254583], BMC Pediatrics 4:17.
(§2) In short: Infants with a gestational age <32 weeks and/or birth weight <1500 g were enrolled. […] Also comparisons were made with a control group (n=52) of term born infants.
(§3) The two powders were indistinguishable by appearance, colour and smell. […] Initially, the supplementation dose was based on birth weight. After 2 weeks the dose was adjusted to actual body weight. Two members of the nursing staff daily added supplementation to breast milk or to preterm formula (Nenatal®, Nutricia Nederland B. V., Zoetermeer, The Netherlands), according to the parents' choice. Per 100 ml, Nenatal® provides 78 kcal, 2.1 g protein (casein-whey protein weight ratio 40:60), 4.4 g fat and 7.5 g carbohydrate. […] Protocol guidelines for the introduction of parenteral and enteral nutrition are disclosed in van den Berg et al., 2004.
(§4) All statistical analyses are performed on an intention to treat basis. […]
Brain cortical volumes were determined by MRI and calculated using FSL software “FAST” and corrected for age at MRI scan, gender and body weight for gestational age.

[2] = Intellectual development (WISC-III short form, FSIQ) in preterm children born small for gestational age; conditions: SGA glutamine group versus SGA control group, n=9 each
Description: A subgroup of infants born small for gestational age (SGA <10th percentile) was identified and analysed separately. Intellectual development was analysed in this subgroup of infants by a short form of the Wechsler Intelligence Scale for Children-III (WISC-III), including the subtests Vocabulary and Block Design. Both subtests correlate strongly (r 0.90) with full-scale intelligence quotient (FSIQ). Scores on this test were normalised with a mean of 100 (SD 15). A group of nine SGA infants that received placebo was compared with a group of nine SGA infants that received glutamine treatment.

[3] = Brain subcortical volumes by MRI at school age after enteral glutamine supplementation in the first month of life; conditions: glutamine supplemented group versus control preterm group
Description: as §1, §2, §3, §4
Brain subcortical volumes were determined by MRI and calculated using FSL software “FAST” and corrected for age at MRI scan, gender and body weight for gestational age.

For NC(=O)CC[C@H](N)C(=O)O [Glutamine, L-glutamine], the “White matter volume compared to preterm control group (in words)” value [1] was “significantly higher”, the “IQ compared to SGA control group (in words)” value [2] was “significant improvement” and the “Brain stem volume compared to preterm control group (in words)” value [3] was “significantly higher”. The “Hippocampus volume compared to preterm control group (in words)” value [3] was “significantly higher”.
